Assay results: patent US20250197393A1, “INTEGRIN INHIBITOR AND USES THEREOF” (Pliant Therapeutics, Inc., priority 2023, published 2025)

Experiments:
Assay type in all cases: physicochemical
[1] = VT-XRPD heating experiment; conditions: heated to 110° C. under dry nitrogen flow for about 30 min, then cooled to ambient (20-26° C., 20%-35% RH)
Experimental: The dried(S)-4-((2-methoxyethyl)(4-(5,6,7,8-tetrahydro-1,8-naphthyridin-2-yl)butyl)amino)-2-(quinazolin-4-ylamino)butanoic acid L-tartaric acid cocrystal Pattern A was also investigated by VT-XRPD experiments. The(S)-4-((2-methoxyethyl)(4-(5,6,7,8-tetrahydro-1,8-naphthyridin-2-yl)butyl)amino)-2-(quinazolin-4-ylamino)butanoic acid L-tartaric acid cocrystal Pattern A was heated to 110° C. under dry nitrogen flow for about 30 min and then cooled to ambient condition (20-26° C., 20%-35% RH). The obtained solid parts were investigated by XRPD.

[2] = Bulk stability of solid under temperature/humidity stress (HPLC, appearance, XRPD); conditions: 40° C./75% RH in an open container, 4 weeks; listed as L-tartaric acid cocrystal Pattern A
Compression study = conditions: 5 minutes; for XRPD after compression: hydraulic press
Experimental: (§1) About 20 mg of (S)-4-((2-methoxyethyl)(4-(5,6,7,8-tetrahydro-1,8-naphthyridin-2-yl)butyl)amino)-2-(quinazolin-4-ylamino)butanoic acid L-tartaric acid cocrystal Pattern A was compressed for 5 minutes under 2 MPa, 5 MPa and 10 MPa with a hydraulic press. Potential form change and degree of crystallinity were evaluated by XRPD.

Dry grinding = conditions: ground manually with mortar and pestle for 3 min
Experimental: as §1, with “ground manually” for “compressed for 5 minutes under 2 MPa, 5 MPa and 10 MPa”, “mortar and a pestle for 3 min.” for “hydraulic press.”

[3] = Water activity experiments in MeOH/water (relative stability of hydrate Pattern A and hydrate Pattern B); conditions: for water activity (a.w.) at which the pattern was obtained: methanol/water
Experimental: The relative stability of the hydrate Pattern A and the hydrate Pattern B was investigated using water activity experiments in MeOH/water systems. About 5 mg of (S)-4-((2-methoxyethyl)(4-(5,6,7,8-tetrahydro-1,8-naphthyridin-2-yl)butyl)amino)-2-(quinazolin-4-ylamino)butanoic acid L-tartaric acid cocrystal Pattern A and 5 mg of (S)-4-((2-methoxyethyl)(4-(5,6,7,8-tetrahydro-1,8-naphthyridin-2-yl)butyl)amino)-2-(quinazolin-4-ylamino)butanoic acid L-tartaric acid cocrystal Pattern B were added to 0.1-0.5 mL saturated solutions of the methanol/water system. Obtained suspensions were stirred at 5° C., 25° C. and 50° C. for up to 21 days, respectively. Solid parts (wet cakes) were isolated by centrifugation filtration and investigated by XRPD.

[4] = Hygroscopicity by dynamic vapor sorption (DVS)
Experimental: Dynamic vapor sorption of Pattern A was studied using a Surface Measurement Systems (SMS) Intrinsic instrument. Total gas flow was 200 sccm. The oven temperature was 25° C. Water was used as the solvent, in a cycle of 40-95-0-95-40% RH. The stage step was 10% RH and equilibrium was within 0.002 dm/dt (%/min) (minimum dm/dt stability duration: 60 min; maximum dm/dt stage time: 360 min). The sample mass was about 5-50 mg.
The water sorption and desorption behavior of (S)-4-((2-methoxyethyl)(4-(5,6,7,8-tetrahydro-1,8-naphthyridin-2-yl)butyl)amino)-2-(quinazolin-4-ylamino)butanoic acid L-tartaric acid cocrystal Pattern A was investigated by DVS at 25° C. with a cycle of 40-95-0-95-40% RH. XRPD was measured after the DVS test to determine form change. […] It dehydrated in 10% RH and below.

[5] = 10% relative humidity at 25° C.
[6] = 20% relative humidity at 25° C.
[7] = 30% relative humidity at 25° C.
[8] = 40% relative humidity at 25° C.
[9] = 50% relative humidity at 25° C.
[10] = 60% relative humidity at 25° C.
[11] = 70% relative humidity at 25° C.
[12] = 80% relative humidity at 25° C.
[13] = 90% relative humidity at 25° C.
[14] = 95% relative humidity at 25° C.

Structure (SMILES): COCCN(CCCCc1ccc2c(n1)NCCC2)CC[C@H](Nc1ncnc2ccccc12)C(=O)O [Pattern A, (S)-4-((2-methoxyethyl)(4-(5,6,7,8-tetrahydro-1,8-naphthyridin-2-yl)butyl)amino)-2-(quinazolin-4-ylamino)butanoic acid]
- XRPD after heating (VT-XRPD) [1]: no form change
- purity decrease [2]: 2.1%
- degree of crystallinity after compression (XRPD) (Compression study; 2 MPa, 5 MPa and 10 MPa): slight decrease in crystallinity
- form change after compression (XRPD) (Compression study; 2 MPa, 5 MPa and 10 MPa): no form change
- XRPD after compression (Compression study; 2 MPa): Pattern A
- XRPD after compression (Compression study; 5 MPa): Pattern A
- XRPD after compression (Compression study; 10 MPa): Pattern A
- degree of crystallinity after dry grinding (XRPD) (Dry grinding): no obvious change in crystallinity
- form change after dry grinding (XRPD) (Dry grinding): No form change
- thermodynamic stability based on water activity experiments ([3]; 0, 0.2, 0.4, 0.6, 0.8 and 1.0 water activity): thermodynamically stable
- water activity (a.w.) at which the pattern was obtained ([3]; 5° C.): ≤ 0.8
- water activity (a.w.) at which the pattern was obtained ([3]; 25° C.): ≤ 0.8
- water activity (a.w.) at which the pattern was obtained ([3]; 50° C.): ≤ 1.0
- 1st desorp. Weight % change ([4]; 0% relative humidity at 25° C.): 0.0%
- 2nd sorp. Weight % change ([4]; 0% relative humidity at 25° C.): 0.0%
- 1st desorp. Weight % change [4, 5]: 5.2%
- 2nd sorp. Weight % change [4, 5]: 4.7%
- 1st desorp. Weight % change [4, 6]: 7.4%
- 2nd sorp. Weight % change [4, 6]: 7.1%
- 1st desorp. Weight % change [4, 7]: 8.3%
- 2nd sorp. Weight % change [4, 7]: 8.0%
- 1st desorp. Weight % change [4, 8]: 8.9%
- 1st sorp. Weight % change [4, 8]: 8.5%
- 2nd desorp. Weight % change [4, 8]: 8.9%
- 2nd sorp. Weight % change [4, 8]: 8.7%
- 1st desorp. Weight % change [4, 9]: 9.4%
- 1st sorp. Weight % change [4, 9]: 9.0%
- 2nd desorp. Weight % change [4, 9]: 9.4%
- 2nd sorp. Weight % change [4, 9]: 9.2%
- 1st desorp. Weight % change [4, 10]: 9.8%
- 1st sorp. Weight % change [4, 10]: 9.6%
- 2nd desorp. Weight % change [4, 10]: 9.9%
- 2nd sorp. Weight % change [4, 10]: 9.7%
- 1st desorp. Weight % change [4, 11]: 10.4%
- 1st sorp. Weight % change [4, 11]: 10.1%
- 2nd desorp. Weight % change [4, 11]: 10.4%
- 2nd sorp. Weight % change [4, 11]: 10.2%
- 1st desorp. Weight % change [4, 12]: 11.1%
- 1st sorp. Weight % change [4, 12]: 10.7%
- 2nd desorp. Weight % change [4, 12]: 11.1%
- 2nd sorp. Weight % change [4, 12]: 10.9%
- 1st desorp. Weight % change [4, 13]: 12.6%
- 1st sorp. Weight % change [4, 13]: 12.2%
- 2nd desorp. Weight % change [4, 13]: 12.6%
- 2nd sorp. Weight % change [4, 13]: 12.1%
- 1st desorp. Weight % change [4, 14]: 18.7%
- 1st sorp. Weight % change [4, 14]: 18.7%
- 2nd desorp. Weight % change [4, 14]: 16.1%
- 2nd sorp. Weight % change [4, 14]: 16.1%
- XRPD following the DVS experiments ([4]; after cycle 40-95-0-95-40% RH, 25° C.): no form change
- hygroscopicity ([4]; at 70% RH and below, 25° C.): slightly hygroscopic
- water uptake ([4]; from 40% RH to 70% RH, 25° C.): about 1.6%
- water uptake ([4]; from 80% RH to 95% RH, 25° C.): about 8.0%
- behaviour at low humidity ([4]; in 10% RH and below, 25° C.): dehydrated
- hygroscopicity ([4]; in 80% RH and above, 25° C.): moderately hygroscopic
- water loss on dehydration ([4]; relative humidity below 10% RH, water absorbed back at 10% RH and above): about 5%
